From paper PMC7819857, “Identification of Inhibitors of Integrin Cytoplasmic Domain Interactions With Syk” (Frontiers in Immunology, 2021)
Where two headings read alike, the source gives them in different places.

Columns and labels:
[1] = target: T1, integrin β3 cytoplasmic domain : tandem SH2 domains of Syk (GST-Syk(6-370)) (Homo sapiens, UniProt P43405); assay: AlphaScreen of integrin β3 cytoplasmic domain peptide binding to GST-Syk(6-370)
T1 construct: the tandem SH2 domains of Syk (residues 6-370); made in house; host or cells: E. coli BL21(DE3)
Description: The following HTS assay was developed to identify antagonists of the interaction between the integrin β3 cytoplasmic domain and the non-receptor tyrosine kinase Syk. […] ( Figure 1E ). Background signals in this assay were determined by omitting the integrin β3 peptide. Specific assay conditions are described in Table 1 . […] Then, either dimethyl sulfoxide control or compound was added, followed by biotinylated β3 peptide, and avidin-coated AlphaScreen donor beads. After a 4-h incubation period at room temperature (while protected from light), assays plates were read on an Infinite M1000 (Tecan) multiplate reader (Ex. 680/30; Em. 570/100).
Figure 3 Dose-response curves in primary and orthogonal screens. (A) AlphaScreen dose-response curves. […] Data are expressed as mean fluorescence (Fl520) ± range from duplicates, and one representative experiment of “n” performed is shown. (B) Orthogonal ELISA-based dose-response assays. […] Data are expressed as mean abs450 ± SEM from triplicate determinations, and one of three representative experiments is shown. (C) Ceftazidime inhibition of β3 peptide binding to Syk from THP-1 whole cell lysate. THP-1 cell lysate (100 ug) was treated with or without ceftazidime (Ctaz) before incubation with β3-coated avidin-agarose beads, and bound Syk was measured by western blot (example shown in inset). Blank beads served as a negative control. Equal β3 peptide loading was verified by probing blots with avidin-HRP (not shown).

[2] = target: T2, pITAM : Syk tandem SH2 domains (GST-Syk(6-370)) (Homo sapiens, UniProt P43405); assay: pITAM-Syk AlphaScreen; settings: read-out: IC50, inhibition of pITAM-Syk binding
T2 construct: made in house; host or cells: E. coli BL21(DE3)
Excerpt: Figure 6 Selective inhibition of integrin signaling by ceftazidime. (A) Schematic illustration of the pITAM-Syk AlphaScreen used to test antagonist selectivity. (B) Comparison between ceftazidime (Ctaz) and pITAM peptide inhibition of pITAM-Syk binding in the AlphaScreen assay described in (A). […] Data are expressed as mean ± range from duplicate determinations. One of four representative assays is shown. (C) Effect of ceftazidime on Syk kinase activity. Ceftazidime (Ctaz) or Syk inhibitor P505-15 was used at 100 uM. Kinase activity is expressed as percent of maximum signal. Data are expressed as mean ± SEM (n = 3). **p < 0.01 (D) Selective effects of ceftazidime on integrin signaling. […] Phosphorylation of Syk (left and right panel) and Pyk-2 (center panel) was analyzed by immunoprecipitation and western blot. […] Quantification is shown below (left panel, n = 5; center panel, n = 3; right panel, n = 3), normalized to phosphorylation in suspension. Results are expressed as the mean ± SEM. […] Expression of interleukin (IL)-1β and monocyte chemoattractant protein (MCP)-1 genes was examined by quantitative real-time polymerase chain reaction. Data are expressed as expression levels relative to control cells kept in suspension. […] P-values were calculated by the Student t test. […]

IC50 ([1]; Figure 3A: biotinylated-b3(sh) peptide 30 nM, GST-Syk(6-370) 0.3 nM, read-out: IC50, AlphaScreen dose-response): 1.02 ± 0.2 µM
IC50 ([1]; abstract summary for both compounds, read-out: IC50 range, inhibition of integrin β-subunit cytoplasmic domain binding to the tandem SH2 domains of Syk): 1.02 to 4.9 µM
IC50 ([1]; as restated in the Discussion, read-out: IC50 in AlphaScreen assays): 1 µM
IC50 ([1]; biotinylated β chain peptide 30 nM, GST-Syk(6-370) 0.3 nM, Figure 4A, read-out: antagonist activity against β3 (value without measure name), AlphaScreen): 1.87 ± 0.2 µM
fold difference in inhibition, primary screen over false-positive counter screen (hit criterion) ([1]; re-sourced compounds, counter screen with biotinylated GST): greater than 3 fold
inhibition of fluorescent signal in the primary screen, re-sourced compounds (hit criterion) ([1]; re-sourced from a separate commercial source, 25 uM in text, 30 uM in legend of Figure 2C): greater than 50%
IC50 [2]: > 300 µM
Structure (SMILES): CC(C)(O/N=C(\C(=O)N[C@@H]1C(=O)N2C(C(=O)[O-])=C(C[n+]3ccccc3)CS[C@H]12)c1csc(N)n1)C(=O)O [ceftazidime]
